# Assay results from US20060003348A1, “Omi PDZ modulators” (GENENTECH. INC., priority 2004, published 2006).
# Where two headings read alike, the source gives them in different places. Where a SMILES comes first, the peptide text is derived from it. Where no end group is shown, it is not given here.
# Target: T1, Omi PDZ (GST-Omi PDZ fusion protein) (Homo sapiens, UniProt O43464)
# T1 construct: DNA fragment encoding hOmi PDZ domain was cloned into BamHI/XhoI sites of pGEX6P-3 plasmid, creating a GST-hOmiPDZ fusion protein; made in house; host or cells: E. coli BL21(DE3), plasmid pGEX6P-3
# T1 sequence (O43464 359-458): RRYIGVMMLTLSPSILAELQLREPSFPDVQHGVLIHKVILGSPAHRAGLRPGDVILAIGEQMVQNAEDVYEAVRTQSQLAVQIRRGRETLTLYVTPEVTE
# Assay: Competition ELISA affinity assay: peptide blocks GST-Omi PDZ binding to immobilized biotinylated peptide
# Conditions: for IC50 (μM) / IC50: competition ELISA; for fold lower affinity (IC50 increase) relative to SWTMFWV (hOmi_c1): compared with peptide SWTMFWV (hOmi_c1)
# Protocol: Affinity Assays—The binding affinities of peptides for Omi PDZ were determined as IC50 values using a previously described competition ELISA (18). […] Assay plates were prepared by immobilizing an amino-terminally biotinylated peptide (biotin-GWTMFWV) on maxisorp plates coated with NeuTravidin and blocked with BSA. A fixed concentration of GST-Omi PDZ fusion protein (20 nM) in PBS, 0.5% BSA, 0.1% Tween 20 (PBT buffer) was preincubated for 1 h with serial dilutions of peptide and then transferred to the assay plates. After 1 h incubation, the plates were washed with PBS, 0.05% Tween 20, incubated for 30 min with HRP/anti-GST antibody (1:10,000) in PBT buffer, washed again, and detected with 3,3′,5,5′-Tetramethyl-benzidine/H2O2 (TMB) peroxidase substrate.
# The binding affinity of this ligand to Omi PDZ was measured with ELISA competition assay. […] PDZ-opt is an optimized peptide ligand of Omi PDZ derived from a chemically synthesized peptide library (11) with totally different sequence motif from that of the ligands derived from phage libraries. […] Peptides from libC and peptides Mxi2 and PDZ-opt were synthesized with acetylated N termini and free C termini, unless indicated otherwise. Peptides from libN were synthesized with free N termini and amidation at C termini.
# [1] = 20 nM GST-Omi PDZ, immobilized biotinylated high affinity peptide, mean
# [2] = 20 nM GST-Omi PDZ, immobilized biotinylated high affinity peptide, mean, read-out: IC50
# [3] = IC50 (μM), 20 nM GST-Omi PDZ, immobilized biotinylated high affinity peptide, mean
molecule,measurement,setting,value
"SHAWGGWL [hOmi_n1_A3, S H A W G G W L]",IC50 (μM),[1],NDI
"SWTMFWV [hOmi_c3, S W T M F W V-CONH2]",IC50 (μM),[1],NDI
"CC(=O)N[C@@H](Cc1ccccc1)C(=O)N[C@@H](Cc1c[nH]c2ccccc12)C(=O)N[C@H](C(=O)O)C(C)C [hOmi_c1_t4, F W V] (Ac-Phe-Trp-Val-OH)",fold lower affinity (IC50 increase) relative to SWTMFWV (hOmi_c1),,> 30 fold
same,IC50,[2],118 ± 32.1 µM
"NC(=O)[C@H](Cc1c[nH]c2ccccc12)NC(=O)[C@H](Cc1c[nH]c2ccccc12)NC(=O)[C@H](Cc1c[nH]cn1)NC(=O)[C@@H](N)CO [hOmi_n1_t5, S H W W] (H-SHWW-NH2)",fold lower affinity relative to SHWWGGWLG (hOmi_n1),"truncation series of SHWWGGWLG, C terminus amidated",3 fold
"SHWAGGWL [hOmi_n1_A2, S H W A G G W L]",IC50 (μM),[1],NDI
S H W W G (SHWWG) [hOmi_n1_t4],IC50 (μM),[1],NDI
"Ac-GQYYFV-OH [PDZ-Opt, G Q Y Y F V, reference compound]",fold lower affinity (IC50 increase) relative to SWTMFWV (hOmi_c1),,5 fold
same,IC50,[2],17.6 ± 5.6 µM
"Ac-SWTMFWV [hOmi_c1, S W T M F W V]",IC50,[3],3.3 µM
"SHWWGG [hOmi_n1_t3, S H W W G G]",IC50 (μM),[1],NDI
"NC(=O)[C@H](Cc1c[nH]c2ccccc12)NC(=O)[C@H](Cc1c[nH]c2ccccc12)NC(=O)[C@@H](N)Cc1c[nH]cn1 [hOmi_n1_t9, H W W] (H-His-Trp-Trp-NH2)",IC50,[2],108 ± 32.2 µM
same,"effect on binding to Omi PDZ, in words (SHWWGGWLG series)","truncations of SHWWGGWLG (libN), C terminus amidated",comparable affinity as tetrapeptide SHWW
"Ac-MDIELVMI [Mxi2, M D I E L V M I, reference compound]",IC50,[3],> 500 µM
"Ac-SWTMFAV [hOmi_c1_A2, S W T M F A V]",IC50,"unit printed in the cell (mM), read-out: IC50",> 1000 µM
"WWGGWLG [hOmi_n1_t7, W W G G W L G]",IC50 (μM),[1],NDI
"WGGWLG [hOmi_n1_t8, W G G W L G]",IC50 (μM),[1],NDI
"Ac-RFPHFWV-OH [hOmi_c2, R F P H F W V]",fold lower affinity (IC50 increase) relative to SWTMFWV (hOmi_c1),,50 fold
"H-SHWWGGWL-NH2 [hOmi_n1_t1, S H W W G G W L]",IC50,[2],17.6 ± 3.9 µM
